Assay results taken from PubChem BioAssay (NCI).
Values joined by “and” are separate entries in the source; they are usually repeats but may differ in a detail not shown here. Identical values can stand only once.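 Where inhibition never reached the appropriate level, the endpoint shown equals the highest concentration tested. Otherwise, values were interpolated linearly from a five-concentration, 48-hour dose response in 96-well plates. GI50 marks 50% less growth. The concentration for full growth arrest is given as TGI.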

Columns and labels:
Experiment in all cases: growth of human tumour cells (NCI), 48 h
CAKI-1 renal = test system: CAKI-1 renal
MOLT-4 leukemia = test system: MOLT-4 leukemia
ACHN renal = test system: ACHN renal
HS 578T breast = test system: HS 578T breast
T-47D breast = test system: T-47D breast
K-562 leukemia = test system: K-562 leukemia
KM12 colon = test system: KM12 colon
786-0 renal = test system: 786-0 renal
A498 renal = test system: A498 renal
MDA-MB-231 breast = test system: MDA-MB-231 breast

| Compound | GI50 (CAKI-1 renal) [µM] | TGI (CAKI-1 renal) | GI50 (MOLT-4 leukemia) [µM] | TGI (MOLT-4 leukemia) [µM] | GI50 (ACHN renal) [µM] | TGI (ACHN renal) | GI50 (HS 578T breast) [µM] | TGI (HS 578T breast) [µM] | GI50 (T-47D breast) [µM] | TGI (T-47D breast) [µM] | GI50 (K-562 leukemia) [nM] | TGI (K-562 leukemia) | GI50 (KM12 colon) [µM] | TGI (KM12 colon) | GI50 (786-0 renal) [µM] | TGI (786-0 renal) | GI50 (A498 renal) [nM] | TGI (A498 renal) | GI50 (MDA-MB-231 breast) [µM] | TGI (MDA-MB-231 breast) |
| --- | --- | --- | --- | --- | --- | --- | --- | --- | --- | --- | --- | --- | --- | --- | --- | --- | --- | --- | --- | --- |
| O=C(Nc1ccc(-c2ccnc(Nc3ccc(N4CCOCC4)cc3)n2)cc1)C1CCCN1 (configuration not stated) | 3.29 | 17.7 µM | 3.04 | 33.2 | 4.27 | 25.2 µM | 3 | 24.8 | 14.7 | 38.7 | 2000 | > 53.3 µM | 7.49 | 27.3 µM | 4.94 | 20.2 µM | 6400 | 17.9 µM | 7.77 | 23.1 µM |
| C[C@H]1CC2=CC(=O)CC[C@]2(C)[C@H]2CC[C@@]3(C)[C@@H](CC[C@]3(C)O)[C@H]12 | 24 | 77.2 µM | 19.3 | 50.6 | 27.6 | > 100 µM | 30.7 | > 89 | 22.5 | 70.3 | 24700 | > 88.1 µM | 27.5 | > 75.4 µM | 42.5 | > 100 µM | 28200 | > 82.8 µM | 35 | > 100 µM |
| O=C(Nc1ccccc1C(=O)Nc1nccs1)c1ccccc1 |  | > 100 µM |  | > 100 |  | > 100 µM |  | > 100 |  | 56.4 |  | > 100 µM |  | > 100 µM |  | > 100 µM |  | > 100 µM |  | > 100 µM |
| CCCNc1cccc(-n2ncc3c(N/N=C/c4ccncc4)ncnc32)c1 | 1.1 | > 25 µM | > 25 | > 25 | > 6.92 | > 25 µM | 1.1 | > 25 | > 25 | > 25 | 1120 | > 25 µM | 1.77 | > 25 µM | > 25 | > 25 µM | 1120 | > 25 µM | > 25 | > 25 µM |
| CS(=O)(=O)Nc1cc(-c2ccc3ncnc(Nc4cccc(Cl)c4F)c3c2)cnc1Cl | 1.82 | 12.6 µM | 2.31 | 8.46 | 4.09 | > 100 µM | 0.274 | 2.77 | 0.382 | 10.6 | 4200 | > 100 µM | 4.32 | 16.5 µM | 3.63 | 38.5 µM | 1680 | 4.1 µM | 2.1 | 8.06 µM |
| COc1cc(/C=C\c2cc(OC)c(OC)c(OC)c2)cc(NS(=O)(=O)c2cccc(Cl)c2)c1OC | 0.0527 | 27.8 µM | 0.0456 | > 100 | 0.109 | > 100 µM | 0.0795 | > 100 | 39.5 | > 100 | 38.3 | > 100 µM | 0.0437 | > 100 µM | 0.0601 | > 100 µM | 21.8 | 0.0798 µM | 0.259 | > 100 µM |
| Cc1cc(Cl)ccc1NC(=O)NC(C)(C)COC(=O)Nc1cccc(Cl)c1 | 4.38 | 75.3 µM | 6.19 | 79 | 5.6 | > 100 µM | 5.65 | 39 | 5.55 | > 100 | 5090 | > 100 µM | 3.78 | 17.6 µM | 24.2 | > 100 µM | 2820 | 21.8 µM | 5.45 | 26 µM |
| O=[N+]([O-])c1ccc(NC(=S)N/N=C(\c2ccccc2)c2ccccn2)cc1 | 1.36 | 3.02 µM and 2.97 µM | 0.00433 | > 20.5 | 1.34 | 2.62 µM and 2.39 µM |  | 9.39 |  | 3.03 | 4.98 | 2.41 µM and 3.82 µM |  | 3.35 µM and 4.12 µM | 1.01 | 2.17 µM and 2.49 µM | 1410 | 2.71 µM and 3.21 µM | 0.0286 | 2.06 µM and 1.86 µM |
| CC1(C)N=C(N)N=C(N)N1c1ccc(OCCCCNC(=O)c2ccc(S(=O)(=O)F)cc2)c(Cl)c1 | 43.8 | > 100 µM | 21.3 | > 100 | 41.6 | > 100 µM | > 100 | > 100 | > 100 | > 100 | 562 | > 100 µM | 8.04 | > 100 µM | 5.72 | > 100 µM | > 100000 | > 100 µM | 66.2 | > 100 µM |
| O=S1(=O)CC(Br)C(Br)C1 (configuration not stated) | 3.12 | 11.8 µM | 3.27 | 16.2 | 2.61 | 6.72 µM | 5.5 | 76.3 | 3.16 | 13.6 | 3790 | 14.2 µM | 13.4 | 32.4 µM | 10.5 | 25.5 µM | 25100 | 55.1 µM | 3.15 | 10.3 µM |
